Results on eight compounds are retold here after US5858992A, “Non-reducing saccharides, their preparation and use” (Kabushiki Kaisha Hayashibara Seibutsu Kagaku Kenkyujo, priority 1995, dated 1999).

What is called LD50 is the dose expected to kill half of the subjects tested. A higher LD50 goes with lower toxicity.

The nature of series [1]: Maillard reaction (coloration with glycine). The class given is physicochemical. The note with it: 10 w/v % saccharide, one w/v % glycine, 50 mM phosphate buffer pH 7.0, 100° C. for 90 min, 1-cm light-path cell.
The nature of series [2]: Solubility in solvent.
Series [3] has as its system Clostridium perfringens JCM 3816. In kind it is cell-based. The note with it: 0.5 w/v % saccharide in PYF broth, 37° C., 96 hours; free of sugar: -.
In series [4] the test system is Peptostreptococcus prevotii ATCC 9321. Briefly: Assimilation test by intestinal microorganism. The class given is cell-based. The settings on record: 0.5 w/v % saccharide in PYF broth, 37° C., 96 hours; free of sugar: -.
Series [5] concerns Bifidobacterium longum JCM 1217. Kind of series: Assimilation test by intestinal microorganism. In kind it is cell-based. The settings on record: 0.5 w/v % saccharide in PYF broth, 37° C., 96 hours; free of sugar: -.
The target of series [6] is T1, Pancreatic juice amylase (Homo sapiens, UniProt P04746).
T1 sequence (P04746 16-511): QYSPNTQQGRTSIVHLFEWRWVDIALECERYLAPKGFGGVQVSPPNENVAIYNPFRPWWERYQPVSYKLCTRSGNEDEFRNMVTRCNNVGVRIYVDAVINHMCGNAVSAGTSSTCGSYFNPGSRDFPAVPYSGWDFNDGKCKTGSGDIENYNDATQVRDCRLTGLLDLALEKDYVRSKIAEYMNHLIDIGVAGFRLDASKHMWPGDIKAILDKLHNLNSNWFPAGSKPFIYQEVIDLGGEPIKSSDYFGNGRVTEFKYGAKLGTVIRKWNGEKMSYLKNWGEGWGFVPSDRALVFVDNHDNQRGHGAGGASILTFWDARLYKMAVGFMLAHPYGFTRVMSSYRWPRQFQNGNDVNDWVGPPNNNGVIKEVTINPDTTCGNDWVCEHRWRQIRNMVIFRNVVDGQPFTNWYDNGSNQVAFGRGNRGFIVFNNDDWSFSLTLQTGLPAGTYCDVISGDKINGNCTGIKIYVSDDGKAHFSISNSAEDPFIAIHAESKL
Briefly: in vitro.

A short description of series [7]: Acute toxicity test. In kind it is in vivo. The note with it: oral, mice; for LD50: mouse, in vivo. From the text:
As a result, no mouse died even when administered with a highest possible dose. This means that the LD50 is 50 g/kg mouse or more and concludes that it is extremely low in toxicity.

Series [8] concerns Clostridium butyricum JCM 1391. In kind it is cell-based. The note with it: 0.5 w/v % saccharide in PYF broth, 37° C., 96 hours; free of sugar: -.
Series [9] concerns the target T2, Salivary amylase (Homo sapiens, UniProt P0DUB6).
T2 sequence (P0DUB6 16-511): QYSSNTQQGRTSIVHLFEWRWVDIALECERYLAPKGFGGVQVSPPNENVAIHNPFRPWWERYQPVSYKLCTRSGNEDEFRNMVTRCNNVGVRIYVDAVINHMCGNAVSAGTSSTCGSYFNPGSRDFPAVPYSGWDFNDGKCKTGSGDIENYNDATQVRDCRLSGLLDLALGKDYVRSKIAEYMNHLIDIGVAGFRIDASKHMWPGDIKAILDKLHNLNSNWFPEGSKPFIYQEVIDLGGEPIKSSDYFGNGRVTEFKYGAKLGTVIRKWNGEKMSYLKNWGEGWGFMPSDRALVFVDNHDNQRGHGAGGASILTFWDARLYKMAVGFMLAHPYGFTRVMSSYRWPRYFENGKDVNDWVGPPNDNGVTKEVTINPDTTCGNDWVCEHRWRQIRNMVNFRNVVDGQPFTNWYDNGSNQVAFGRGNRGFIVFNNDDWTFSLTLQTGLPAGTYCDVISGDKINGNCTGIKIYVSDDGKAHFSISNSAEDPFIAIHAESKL
Briefly: in vitro.

The nature of series [10]: in vitro. The settings on record: gastric acid.
For series [11], the system named is Streptococcus faecalis IAM 10065. Kind of series: Assimilation test by intestinal microorganism. The note with it: 0.5 w/v % saccharide in PYF broth, 37° C., 96 hours; free of sugar: -. In kind it is cell-based.
In series [12] the test system is Lactobacillus fermentum IFO 3959. Kind of series: Assimilation test by intestinal microorganism. The settings on record: 0.5 w/v % saccharide in PYF broth, 37° C., 96 hours; free of sugar: -. In kind it is cell-based.
The test system of series [13] is Bacteroides distasonis JCM 5825. Briefly: Assimilation test by intestinal microorganism. In kind it is cell-based. The settings on record: 0.5 w/v % saccharide in PYF broth, 37° C., 96 hours; free of sugar: -.
In series [14] the test system is Bacteroides vulgatus JCM 5826. Briefly: Assimilation test by intestinal microorganism. The note with it: 0.5 w/v % saccharide in PYF broth, 37° C., 96 hours; free of sugar: -. The class given is cell-based.
The test system of series [15] is Bifidobacterium bifidum JCM 1255. Briefly: Assimilation test by intestinal microorganism. In kind it is cell-based. The settings on record: 0.5 w/v % saccharide in PYF broth, 37° C., 96 hours; free of sugar: -.
The test system of series [16] is Lactobacillus plantarum IFO 3070. Kind of series: Assimilation test by intestinal microorganism. The class given is cell-based. The note with it: 0.5 w/v % saccharide in PYF broth, 37° C., 96 hours; free of sugar: -.
For series [17], the system named is Bifidobacterium breve JCM 1192. Kind of series: Assimilation test by intestinal microorganism. The class given is cell-based. The note with it: 0.5 w/v % saccharide in PYF broth, 37° C., 96 hours; free of sugar: -.
The subject of series [18] is Bifidobacterium animalis JCM 1190. Kind of series: Assimilation test by intestinal microorganism. In kind it is cell-based. The settings on record: 0.5 w/v % saccharide in PYF broth, 37° C., 96 hours; free of sugar: -.
Series [19] deals with Bacteroides uniformis JCM 5828. Briefly: Assimilation test by intestinal microorganism. The class given is cell-based. The settings on record: 0.5 w/v % saccharide in PYF broth, 37° C., 96 hours; free of sugar: -.
The test system of series [20] is Clostridium ramosum JCM 1298. Kind of series: Assimilation test by intestinal microorganism. The settings on record: 0.5 w/v % saccharide in PYF broth, 37° C., 96 hours; free of sugar: -. The class given is cell-based.
Series [21] has as its system Bifidobacterium infantis JCM 1222. Kind of series: Assimilation test by intestinal microorganism. In kind it is cell-based. The settings on record: 0.5 w/v % saccharide in PYF broth, 37° C., 96 hours; free of sugar: -.
The subject of series [22] is Eubacterium aerofaciens ATCC 25986. Kind of series: Assimilation test by intestinal microorganism. The class given is cell-based. The settings on record: 0.5 w/v % saccharide in PYF broth, 37° C., 96 hours; free of sugar: -.
In series [23] the test system is Escherichia coli IFO 3301. Kind of series: Assimilation test by intestinal microorganism. The class given is cell-based. The settings on record: 0.5 w/v % saccharide in PYF broth, 37° C., 96 hours; free of sugar: -.
Series [24] concerns Bifidobacterium adolescentis JCM 1275. Kind of series: Assimilation test by intestinal microorganism. The note with it: 0.5 w/v % saccharide in PYF broth, 37° C., 96 hours; free of sugar: -. The class given is cell-based.
Series [25] relates to Streptococcus sobrinus ATCC 27351. Briefly: Acid formation by dental caries-inducing microorganisms. The note with it: for pH at each fermentation time (min): living wet cells, 0.02M saccharide, Stephen buffer pH 7.0, 37° C.

In the case of `OC[C@H]1O[C@H](OC[C@H]2O[C@H](OC[C@H]3OC(O)[C@H](O)[C@@H](O)[C@@H]3O)[C@H](O)[C@@H](O)[C@@H]2O)[C@H](O)[C@@H](O)[C@@H]1O` (stereo partly drawn) [Isomaltotriose, isomaltotriose, reference compound], in [1], the “Coloration degree (at a wavelength of 480 nm)” value came to 0.642.

In the case of `OC[C@H]1O[C@H](OC[C@H]2O[C@H](O[C@H]3O[C@H](CO[C@H]4O[C@H](CO)[C@@H](O)[C@H](O)[C@H]4O)[C@@H](O)[C@H](O)[C@H]3O)[C@H](O)[C@@H](O)[C@@H]2O)[C@H](O)[C@@H](O)[C@@H]1O` [α-Isomaltosyl α-isomaltoside, O-α-D-glucopyranosyl -(1→6)-α-D-glucopyranosyl-O-α-D-glucopyranosyl-(1→6) -α-D-glucopyranoside], the Solubility in solvent result was “Insoluble” in series [2] (chloroform and ethyl acetate); “Hardly soluble” in series [2] (methanol and ethanol). The “Judgement of assimilation (turbidity at 750 nm, ×5)” value (from here on “Judgement of assimilation”) in series [3] is given as “- (Less than 0.1)”; in [4] it was “± (0.1 or higher but less than 0.15)”; in [5], “+++ (0.3 or higher)”; in [8] it was “+++ (0.3 or higher)”. In addition, the metabolised in series [6] stood at 0.3%. The compound also displayed an LD50 in [7] not below 50000 mg/kg.

As for `OC[C@H]1O[C@H](OC[C@H]2O[C@H](OC[C@H]3O[C@H](OC[C@H]4OC(O)[C@H](O)[C@@H](O)[C@@H]4O)[C@H](O)[C@@H](O)[C@@H]3O)[C@H](O)[C@@H](O)[C@@H]2O)[C@H](O)[C@@H](O)[C@@H]1O` (stereo partly drawn) [Isomaltotetraose, isomaltotetraose, reference compound], the “Coloration degree (at a wavelength of 480 nm)” value in series [1] turned out to be 0.495.

In the case of `OC[C@H]1O[C@H](O[C@H]2[C@H](O)[C@@H](O)C(O)O[C@@H]2CO)[C@H](O)[C@@H](O)[C@@H]1O` (mixture of isomers) [Maltose, reference compound], the figures for the metabolised in series [9] and in series [6] were 0% and 0.2%, respectively. For the same compound, in series [10], the degraded was determined as 0%.

Take `O=C[C@H](O)[C@@H](O)[C@H](O)[C@H](O)CO` [glucose, reference compound]: the “Judgement of assimilation” value is “+++ (0.3 or higher)” in series [3]; “++ (0.2 or higher but less than 0.3)” in series [11]; “++ (0.2 or higher but less than 0.3)” in [12]; “++ (0.2 or higher but less than 0.3)” in series [13]; “+ (0.15 or higher but less than 0.2)” in [14]; “+ (0.15 or higher but less than 0.2)” in series [4]. Besides, the “Judgement of assimilation” value is listed as “++ (0.2 or higher but less than 0.3)” in [15]; “++ (0.2 or higher but less than 0.3)” in [16]; “++ (0.2 or higher but less than 0.3)” in series [17]; “+++ (0.3 or higher)” in [18]; “++ (0.2 or higher but less than 0.3)” in series [19]; “+ (0.15 or higher but less than 0.2)” in series [20]. Also, the “Judgement of assimilation” value in series [5] is recorded as “+++ (0.3 or higher)”; in series [21], “++ (0.2 or higher but less than 0.3)”; in series [22], “+++ (0.3 or higher)”; in series [23] it was “+ (0.15 or higher but less than 0.2)”; in [24] it was “+++ (0.3 or higher)”; in series [8], “+++ (0.3 or higher)”.

Turning to `OC[C@H]1O[C@H](OC[C@H]2O[C@H](OC[C@H]3O[C@H](O[C@H]4O[C@H](CO)[C@@H](O)[C@H](O)[C@H]4O)[C@H](O)[C@@H](O)[C@@H]3O)[C@H](O)[C@@H](O)[C@@H]2O)[C@H](O)[C@@H](O)[C@@H]1O` [α-Isomaltotriosyl α-glucoside, O-α-D-glucopyranosyl-(1→6)-O-α-D-glucopyranosyl-(1→6) α-D-glucopyranosyl α-D-glucopyranoside], the “Judgement of assimilation” value is “± (0.1 or higher but less than 0.15)” in series [4] and “+++ (0.3 or higher)” in [8]. For the same compound, the metabolised in series [6] amounted to 0.5%. For the same compound, the LD50 in series [7] was not below 50000 mg/kg.

For `OC[C@H]1O[C@H](OC[C@H]2O[C@H](O[C@H]3O[C@H](CO)[C@@H](O)[C@H](O)[C@H]3O)[C@H](O)[C@@H](O)[C@@H]2O)[C@H](O)[C@@H](O)[C@@H]1O` [O-α-D-glucopyranosyl -(1→6)-α-D-glucopyranosyl α-D-glucopyranoside], the “Judgement of assimilation” value in [3] is reported as “+ (0.15 or higher but less than 0.2)”; in series [4], “± (0.1 or higher but less than 0.15)”; in series [5], “+++ (0.3 or higher)”. In series [6], the metabolised is 0.5%. The compound also had an LD50 in series [7] not below 50000 mg/kg. For the same compound, the “Mortality at a highest possible dose” value in series [7] is reported as “no mouse died”.

On to `OC[C@H]1O[C@@](CO)(O[C@H]2O[C@H](CO)[C@@H](O)[C@H](O)[C@H]2O)[C@@H](O)[C@@H]1O` [Sucrose, reference compound], for which the “pH reduction / acid fermentation, in words” value in series [25] is “rapid”. The “pH at each fermentation time (min)” value is 7.0 in series [25] (0 min); 4.3 in [25] (5 min); 4.1 in series [25] (15 min); 4.0 in series [25] (30 min); 4.0 in series [25] (60 min); 4.0 in series [25] (90 min).
